This test concerns the target DNA polymerase theta (Homo sapiens, UniProt O75417). Kind of test: Inhibition of human DNA polymerase theta (1 to 899 residues) ATPase activity using dT50 single strand DNA as substrate by NADH oxidation-coupled enzymatic assay.

SMILES strings stand for the structures.

Sequence of DNA polymerase theta (O75417 whole entry, the tested form may be a part): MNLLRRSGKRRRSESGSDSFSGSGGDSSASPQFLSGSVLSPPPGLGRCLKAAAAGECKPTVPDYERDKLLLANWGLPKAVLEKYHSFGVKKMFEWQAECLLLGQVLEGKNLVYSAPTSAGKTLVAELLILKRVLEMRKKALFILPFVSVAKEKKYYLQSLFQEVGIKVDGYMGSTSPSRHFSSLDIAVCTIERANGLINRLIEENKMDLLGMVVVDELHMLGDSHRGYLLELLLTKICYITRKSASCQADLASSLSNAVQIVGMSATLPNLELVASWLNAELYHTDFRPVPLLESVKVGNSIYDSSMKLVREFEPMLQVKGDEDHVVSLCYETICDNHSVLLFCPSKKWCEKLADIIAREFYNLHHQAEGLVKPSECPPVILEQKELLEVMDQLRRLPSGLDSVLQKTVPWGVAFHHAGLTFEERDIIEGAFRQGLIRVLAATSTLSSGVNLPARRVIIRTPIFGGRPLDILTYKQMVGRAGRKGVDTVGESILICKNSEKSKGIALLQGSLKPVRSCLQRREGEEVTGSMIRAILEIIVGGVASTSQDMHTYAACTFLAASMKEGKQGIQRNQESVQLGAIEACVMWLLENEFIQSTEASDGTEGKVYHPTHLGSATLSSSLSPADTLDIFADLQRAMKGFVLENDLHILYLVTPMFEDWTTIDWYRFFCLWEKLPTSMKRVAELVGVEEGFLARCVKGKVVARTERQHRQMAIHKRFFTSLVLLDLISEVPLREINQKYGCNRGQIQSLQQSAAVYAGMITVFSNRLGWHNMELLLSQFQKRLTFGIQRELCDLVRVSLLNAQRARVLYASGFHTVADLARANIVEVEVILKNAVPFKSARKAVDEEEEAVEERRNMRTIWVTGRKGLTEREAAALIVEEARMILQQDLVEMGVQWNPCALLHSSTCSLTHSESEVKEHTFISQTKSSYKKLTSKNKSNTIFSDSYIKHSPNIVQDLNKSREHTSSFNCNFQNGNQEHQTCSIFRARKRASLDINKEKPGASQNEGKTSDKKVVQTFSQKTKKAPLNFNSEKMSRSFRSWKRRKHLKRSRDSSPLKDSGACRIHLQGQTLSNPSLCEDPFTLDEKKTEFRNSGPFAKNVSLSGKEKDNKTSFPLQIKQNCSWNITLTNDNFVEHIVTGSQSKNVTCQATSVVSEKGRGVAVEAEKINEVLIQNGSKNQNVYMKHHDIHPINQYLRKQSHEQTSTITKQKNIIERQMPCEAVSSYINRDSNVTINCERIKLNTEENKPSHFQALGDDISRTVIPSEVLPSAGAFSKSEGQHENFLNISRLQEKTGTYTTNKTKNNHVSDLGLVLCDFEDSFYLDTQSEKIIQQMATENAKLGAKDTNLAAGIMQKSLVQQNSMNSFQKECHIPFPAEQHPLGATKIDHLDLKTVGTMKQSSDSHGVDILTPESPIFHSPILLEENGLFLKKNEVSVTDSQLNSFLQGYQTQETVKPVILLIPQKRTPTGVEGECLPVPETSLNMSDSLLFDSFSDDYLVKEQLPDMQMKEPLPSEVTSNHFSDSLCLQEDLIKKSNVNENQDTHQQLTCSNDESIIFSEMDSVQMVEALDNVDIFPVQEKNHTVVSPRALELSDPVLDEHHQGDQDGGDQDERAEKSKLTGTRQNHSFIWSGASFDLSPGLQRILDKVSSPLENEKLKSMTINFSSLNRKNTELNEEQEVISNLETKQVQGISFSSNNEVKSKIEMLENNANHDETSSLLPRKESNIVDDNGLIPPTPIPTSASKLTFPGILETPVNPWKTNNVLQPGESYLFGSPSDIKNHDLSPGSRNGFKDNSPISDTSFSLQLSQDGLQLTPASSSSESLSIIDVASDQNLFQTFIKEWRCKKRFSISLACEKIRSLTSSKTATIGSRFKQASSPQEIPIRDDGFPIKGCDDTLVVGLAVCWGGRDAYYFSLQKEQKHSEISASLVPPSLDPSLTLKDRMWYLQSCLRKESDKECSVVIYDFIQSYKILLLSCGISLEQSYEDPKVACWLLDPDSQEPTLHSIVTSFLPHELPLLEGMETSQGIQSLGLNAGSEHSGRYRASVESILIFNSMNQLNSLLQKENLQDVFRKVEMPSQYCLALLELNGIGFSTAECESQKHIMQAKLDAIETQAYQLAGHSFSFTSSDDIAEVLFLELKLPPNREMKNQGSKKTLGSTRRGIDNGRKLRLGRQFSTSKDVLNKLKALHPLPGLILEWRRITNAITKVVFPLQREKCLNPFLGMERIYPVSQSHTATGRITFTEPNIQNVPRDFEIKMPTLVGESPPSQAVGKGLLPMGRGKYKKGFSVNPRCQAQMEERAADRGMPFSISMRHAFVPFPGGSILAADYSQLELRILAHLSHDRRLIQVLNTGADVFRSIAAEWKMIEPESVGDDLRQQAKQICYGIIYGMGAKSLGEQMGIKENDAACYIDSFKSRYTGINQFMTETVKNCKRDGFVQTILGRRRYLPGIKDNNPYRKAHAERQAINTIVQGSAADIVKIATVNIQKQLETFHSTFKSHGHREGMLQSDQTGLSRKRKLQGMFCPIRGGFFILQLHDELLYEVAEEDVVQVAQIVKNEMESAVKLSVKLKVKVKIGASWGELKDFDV

As a reminder, the IC50 is the concentration that inhibits the measured activity by half. Read a high IC50 as weaker potency in that assay. In turn, `COc1nnc(NC(=O)c2cnc(C)cc2-c2c(OC)ccc3scnc23)s1` displayed an IC50 above 10 µM.

The record behind these values is ChEMBL document CHEMBL5393459, “O-linked thiadiazolyl compounds as dna polymerase theta inhibitors” (2022).
